Data reported in paper PMC12670313 (ACS Central Science, 2025).

Key:
[1] = test system: base pair RNA (UU internal loops replaced with AU base pairs); assay: 1D imino proton NMR with base pair control RNA; format: binding; conditions: 50 µM RNA, 100 µM compound
Procedure: NMR spectra were recorded on a 700 MHz Bruker Avance III spectrometer equipped with a cryogenic probe. RNAs (r(GACC-UGCU-GGU-GAAA-ACC-UGC-UGG-UC) where the underlined Us indicate the internal loop nucleotides and bold indicate a GNRA hairpin) and (r(GACC-AGCU-GGU-GAAA-ACCA-GCU-GGUC) where UU internal loops were replaced with AU base pairs) were purchased from Dharmacon, HPLC purified, deprotected and desalted. The RNA (50 μM) was dissolved in NMR Buffer (5 mM KH2PO4/K2HPO4, 0.25 mM EDTA, pH 6.0) or NMR Buffer supplemented with 50 mM NaCl and reannealed by heating to 95 °C for 3 min, and then slowly cooling the sample to room temperature before adding to Shigemi NMR tubes (Shigemi, Inc.).
1D ^1H NMR spectra of exchangeable (imino) protons were acquired in 5% D2O and 95% H2O at 9 °C using 50 μM of RNA in the absence of compound. Compounds were then dissolved in D6-DMSO and added to the RNA sample to achieve a final concentration of 100 μM (1:2 RNA:compound). The chemical shifts were referenced to the residual solvent peaks of D6-DMSO, which served as the internal calibration standard. NMR spectra were processed in Topspin 4.0.6.

[2] = molecular target: r(CUG)2; assay: Fluorescence binding assay with r(CUG) repeat RNA; conditions: A6 100 nM titrated with RNA; read-out: dissociation constant (Kd)
Procedure: Binding assays employed the same RNA used in NMR studies (see “NMR Spectroscopy”). All binding experiments were performed in 1× TR-FRET Assay Buffer lacking Tween-20 on black 384-well nonbinding microplates (Greiner. catalog #781900) with a total volume of 10 μL per well. A 100 nM solution of A6 (the fluorescent probe) was prepared in the same buffer and increasing concentrations of the RNA were then titrated into the A6 solution. After a 20 min incubation at room temperature, fluorescence was measured by a Spectra Max M5 plate reader using an excitation wavelength of 320 nm and an emission wavelength of 480 nm. To confirm specificity, parallel measurements were performed with a fully paired RNA construct as a negative control, where no significant change in fluorescence was observed. The change in fluorescence signal as a function of RNA concentration was fitted to a standard ligand binding for one site saturation 6 Fobs=F0+Fmax−F0/1+(Kd/[RNA])^n where F obs is the observed fluorescence at each RNA concentration, F 0 and F max are the fluorescence intensities of free and fully bound RNA, K d is the dissociation constant, and n is the Hill coefficient.

[3] = test system: WT myotubes; assay: Viability of WT myotubes; format: cell-based, human; conditions: 50 µM

SMILES	binding to base pair RNA (1D imino proton spectra) [1]	Kd [2] [µM]	toxicity in wild-type cells [3]
COc1ccc(CCNC(=O)c2cc3c(N4CCCC4)nc(C)cn3n2)cc1OC [A6]	does not bind	17 ± 2	
Cc1cn2nc(C(=O)NCCc3ccccc3)cc2c(N2CCCC2)n1 [A5]			caused toxicity
